According to patent US12582642B2, “Composition for treating, improving, and/or preventing progression of bovine papillomatosis caused by bovine papillomavirus” (KinoPharma, Inc., priority 2020, dated 2026):
Where “and” joins values, the source holds several entries; their conditions need not be identical. Equal values may be shown once. Entries after “also recorded” stand apart in the source; their conditions may differ.

Experiments:
[1] = system: bovine papilloma (wart) caused by BPV in front teats; assay: Therapeutic effect confirmation test performed on dairy cow having papilloma; assay type: in vivo, cow (female dairy cows); parameters: key to Determination (pharmaceutical effect for each individual cow): Effective: Test section>Control section; Ineffective: Test section≤Control section
Source text: To female dairy cows (four), each having papillomas in both of front teats, an ointment agent containing Compound A was applied once a day to a papilloma (wart) of one of the front teats (test section). A dressing tape (Navis, PROSHARE Dressing Role, No. 8-5965-01) was applied around the teat after the application of the ointment agent to prevent external contamination. The ointment agent was applied over a surface of the teat at about 0.01 g to about 0.2 g (equivalent to the active ingredient of about 0.3 mg to about 6 mg) per 1 cm^2 of the surface area. The application (treatment) of 5-day administration with 2-day rest was continued for 4 weeks. The diseased part was imaged once a week. Pharmaceutical effects were evaluated based on a state of the diseased part (wart) four weeks after the start of the application.
Changes (size reduction/disappearance, no change, and growth/occurrence) of warts after four-week administration were evaluated with the following three-level evaluation scores. No change” includes the suppression of growth and being non-effective. “Occurrence” means that a new wart was generated during the four-week administration.
Size reduction/disappearance=+1, no change=0, and growth/occurrence=−1.
Further, scores were added for each individual cow, and pharmaceutical effects for each individual cow were determined based on the following criteria. • Effective: Test section>Control section • Ineffective: Test section≤Control section
When only small warts were targeted, the growth or size reduction of warts noticeably appear, which is considered to make it easier to determine the effects of Compound A. In view of this, only warts having a size of less than 5 mm before the application of an ointment agent were selected from the test sections and the control sections in the above-described confirmation test, and the ratio of warts that had smaller sizes or disappeared was calculated.

[2] = system: bovine papilloma (wart) caused by BPV in front teats; assay: as above; assay type: in vivo, cow (female dairy cows)
[3] = total of cows 01-04, ointment 3% by weight, 4 weeks

Structure (SMILES): Fc1ccc(N2CCCCC2)c(NC(=S)c2ccncc2)c1 [Compound A, N-[5-fluoro-2-(1-piperidinyl)phenyl]-4-pyridinethioamide]
- Ratio of warts that had smaller sizes or disappeared ([1]; Evaluation Method 2: only warts of less than 5 mm before application, 14 warts in the test sections, control sections 0%): 28.6%
- Overall judgement of the ointment agent containing Compound A ([1]; based on the total scores and on the individual cow evaluations, 4 weeks): considered effective
- Cases (cows) determined effective out of four cases ([1]; four cows, 4 weeks, ointment 3% by weight): Effective in three
- State of diseased part in a test section (FIG. 2 images) ([1]; from before the start of administration to after the end of administration): warts disappeared
- Test section Growth/Occurrence (evaluation score) ([1]; per individual cow, ointment (Compound A: 3% by weight) applied once a day to teat wart, 4 weeks, growth/occurrence=−1 per wart): 0 (3×) and −6
- Test section Size reduction/Disappearance (evaluation score) ([1]; per individual cow, ointment (Compound A: 3% by weight, white petrolatum) applied once a day to teat wart, 5-day administration with 2-day rest, 4 weeks, size reduction/disappearance=+1 per wart): +1 (2×) and +3 and +2
- Determination (pharmaceutical effect for each individual cow) ([1]; per individual cow, test section score versus control section (ointment base) score, 4 weeks): Ineffective; also recorded: Effective
- Effectiveness score Test section ([1]; scores added for each individual cow, ointment 3% by weight, 4 weeks): +1 (2×) and −3 and +2
- Test section Growth/Occurrence, Total of four cows [1, 3]: −6
- Test section Size reduction/Disappearance, Total of four cows [1, 3]: +7
- Effectiveness score Test section, Total ([1]; total of four cows, control sections total −8, 4 weeks): +1
- Warts that disappeared among the additional reduced warts in the test section ([2]; administration continued for a further four weeks after the four-week administration): two
- Additional warts with reduced size in the test section ([2]; administration continued under the same conditions for a further four weeks after the four-week administration): four
